Measurements reported in paper PMC10884080, “A progesterone derivative linked to a stable phospholipid activates breast cancer cell response without leaving the cell membrane” (Cellular and Molecular Life Sciences: CMLS, 2024).

Biological target: T1, progesterone receptor (PR, PRb) (Homo sapiens, UniProt P06401)
T1 construct: gene PGR; wild type PRb expressed in PR-negative U2OS or TYML cells
T1 sequence (P06401 1-933): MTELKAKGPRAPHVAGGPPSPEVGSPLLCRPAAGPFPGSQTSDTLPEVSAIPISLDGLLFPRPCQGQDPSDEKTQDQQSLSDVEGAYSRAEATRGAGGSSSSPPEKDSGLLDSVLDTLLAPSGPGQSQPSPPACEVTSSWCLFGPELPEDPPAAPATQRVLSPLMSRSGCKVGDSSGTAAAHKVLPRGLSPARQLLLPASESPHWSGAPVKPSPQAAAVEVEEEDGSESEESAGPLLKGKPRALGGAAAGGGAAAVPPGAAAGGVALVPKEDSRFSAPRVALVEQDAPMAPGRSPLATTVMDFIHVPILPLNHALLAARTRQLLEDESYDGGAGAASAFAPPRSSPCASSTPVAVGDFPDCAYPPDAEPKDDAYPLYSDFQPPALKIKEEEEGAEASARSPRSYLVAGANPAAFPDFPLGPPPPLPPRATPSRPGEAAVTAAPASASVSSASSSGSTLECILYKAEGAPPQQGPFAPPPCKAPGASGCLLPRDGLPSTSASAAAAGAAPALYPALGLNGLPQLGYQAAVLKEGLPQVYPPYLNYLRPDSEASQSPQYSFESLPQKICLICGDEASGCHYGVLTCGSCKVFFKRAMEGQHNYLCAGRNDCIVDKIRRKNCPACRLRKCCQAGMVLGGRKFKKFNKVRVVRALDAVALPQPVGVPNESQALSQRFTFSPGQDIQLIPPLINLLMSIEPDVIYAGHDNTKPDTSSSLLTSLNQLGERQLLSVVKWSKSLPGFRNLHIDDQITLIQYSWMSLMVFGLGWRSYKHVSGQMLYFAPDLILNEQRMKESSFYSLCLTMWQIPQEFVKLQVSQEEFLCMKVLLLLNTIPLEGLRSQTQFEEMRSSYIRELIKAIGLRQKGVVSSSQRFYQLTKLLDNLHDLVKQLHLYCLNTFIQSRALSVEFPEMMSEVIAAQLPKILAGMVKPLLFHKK
Experiment: PR S294 phosphorylation and MMTV-luc/target gene induction by […] P4 in PR-negative cells transfected with wild type PRb
Format: cell-based

CC(=O)[C@H]1CC[C@H]2[C@@H]3CCC4=CC(=O)CC[C@]4(C)[C@H]3CC[C@]12C [P4, progesterone]
PR S294 phosphorylation and MMTV-luc/target gene induction by 10 nM P4 in PR-neg: only the wtPR-expressing cells activated the ERK kinase and led to PR phosphorylation
